The text below walks through data of ChEMBL document CHEMBL1144853, “Arginine binding motifs: design and synthesis of galactose-derived arginine tweezers as galectin-3 inhibitors” (J Med Chem, 2008).

Molecules are shown by their SMILES.

The target of this assay is Galectin-3 (Homo sapiens, UniProt P17931). Kind of assay: Binding affinity to human galectin 3 by Fluorescence polarization assay.
Sequence of Galectin-3 (P17931 whole entry): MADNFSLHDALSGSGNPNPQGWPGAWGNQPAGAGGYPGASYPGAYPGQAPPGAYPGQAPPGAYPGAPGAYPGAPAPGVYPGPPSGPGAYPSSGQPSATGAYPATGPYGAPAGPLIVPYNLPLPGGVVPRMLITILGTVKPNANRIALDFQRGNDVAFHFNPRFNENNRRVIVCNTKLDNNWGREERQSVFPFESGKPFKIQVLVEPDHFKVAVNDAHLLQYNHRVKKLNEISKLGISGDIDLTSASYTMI
Consider `CS[C@@H]1O[C@H](CO)[C@H](O)[C@H](O)[C@H]1OS(=O)(=O)O`, for which the Kd stood at 2800 µM.
Then `CS[C@@H]1O[C@H](CO)[C@H](O)[C@H](NC(=O)c2ccc(C)cc2)[C@H]1OP(=O)(O)OCc1ccccc1`, with 120 µM; and `CS[C@@H]1O[C@H](CO)[C@H](O)[C@H](NC(=O)c2ccc(C)cc2)[C@H]1OP(=O)(O)O`, with 250 µM; and `CS[C@@H]1O[C@H](CO)[C@H](O)[C@H](NC(=O)c2ccc(C)cc2)[C@H]1O[PH](=O)O`, with 150 µM.
For `CS[C@@H]1O[C@H](CO)[C@H](O)[C@H](NC(=O)c2ccc(C)cc2)[C@H]1OS(=O)(=O)O` the value was 87 µM; for `CS[C@@H]1O[C@H](CO)[C@H](O)[C@H](NC(=O)c2ccc(C)cc2)[C@H]1OC(=O)c1ccccc1`, 380 µM; for `CS[C@@H]1O[C@H](CO)[C@H](O)[C@H](NC(=O)c2ccc(C)cc2)[C@H]1O`, 220 µM.
For `CS[C@@H]1O[C@H](CO)[C@H](O)[C@H](O)[C@H]1O` the value was 5900 µM.
The compound `CS[C@@H]1O[C@H](CO)[C@H](O)[C@H](NC(=O)c2ccc(C)cc2)[C@H]1OC(C)=O` had a dissociation constant Kd of 240 µM.
